The nature of series [1]: Solubility of SHR0302 in water at varying pH values in a phosphate buffer. The conditions noted are these: phosphate buffer system; FIG. 1. Type of series: physicochemical. As for the experimental part:
The solubility of SHR0302 was determined in water at varying pH values in a phosphate buffer. FIG. 1 illustrates a plot of SHR0302 (also known as ARQ-250) concentration in μg/mL in water as a function of pH in a phosphate buffer system.

Series [2] in a line: Solubility of SHR0302 in water at varying pH values in phosphate and citrate buffer systems. In kind it is physicochemical. The conditions noted are these: FIG. 2. As for the experimental part: The solubility of SHR0302 was determined in water at varying pH values in various buffer systems. FIG. 2 illustrates a plot of SHR0302 concentration in μg/mL in water as a function of pH in two phosphate buffer systems and a citrate buffer system.

Series [3] has as its target JAK1 (Homo sapiens, UniProt P23458). The conditions noted are these: cited from earlier work.

JAK1, sequence (P23458 whole entry): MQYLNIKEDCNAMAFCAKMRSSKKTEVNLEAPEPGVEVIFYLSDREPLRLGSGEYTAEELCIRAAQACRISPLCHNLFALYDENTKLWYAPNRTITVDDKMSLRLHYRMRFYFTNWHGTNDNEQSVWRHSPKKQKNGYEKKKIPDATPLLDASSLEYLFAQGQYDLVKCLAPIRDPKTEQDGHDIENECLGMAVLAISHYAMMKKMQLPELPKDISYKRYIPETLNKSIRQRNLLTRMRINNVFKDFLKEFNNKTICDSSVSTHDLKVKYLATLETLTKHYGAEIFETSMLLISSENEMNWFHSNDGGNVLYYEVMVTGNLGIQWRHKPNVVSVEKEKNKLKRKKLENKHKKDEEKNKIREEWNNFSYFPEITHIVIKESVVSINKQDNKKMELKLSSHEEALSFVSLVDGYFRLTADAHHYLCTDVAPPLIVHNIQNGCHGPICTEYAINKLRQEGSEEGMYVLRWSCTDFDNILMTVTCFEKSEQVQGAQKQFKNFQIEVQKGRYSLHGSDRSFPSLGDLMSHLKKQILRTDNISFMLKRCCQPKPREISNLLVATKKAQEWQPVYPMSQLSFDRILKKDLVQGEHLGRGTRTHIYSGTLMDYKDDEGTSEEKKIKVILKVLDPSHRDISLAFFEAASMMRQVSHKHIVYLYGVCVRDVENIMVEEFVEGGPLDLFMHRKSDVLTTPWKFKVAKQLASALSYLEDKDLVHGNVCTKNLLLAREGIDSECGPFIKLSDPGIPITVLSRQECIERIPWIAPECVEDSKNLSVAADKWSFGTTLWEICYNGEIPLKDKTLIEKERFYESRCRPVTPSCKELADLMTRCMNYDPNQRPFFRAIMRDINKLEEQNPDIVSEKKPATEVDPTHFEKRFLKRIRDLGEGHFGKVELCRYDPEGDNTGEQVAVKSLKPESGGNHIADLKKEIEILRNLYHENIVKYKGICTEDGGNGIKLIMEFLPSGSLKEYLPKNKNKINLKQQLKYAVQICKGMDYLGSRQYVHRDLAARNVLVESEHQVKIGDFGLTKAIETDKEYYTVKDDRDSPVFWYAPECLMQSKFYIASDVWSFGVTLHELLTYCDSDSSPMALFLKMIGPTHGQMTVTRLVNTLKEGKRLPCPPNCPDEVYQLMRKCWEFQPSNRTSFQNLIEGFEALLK

For the compound `COc1nsc(NC(=O)N2C[C@H]3C[C@H](N(C)c4ncnc5[nH]ccc45)C[C@H]3C2)n1` [SHR0302, (3aR,5S,6aS)—N-(3-methoxyl-1,2,4-thiadiazol-5-yl)-5-(methyl(7H-pyrrolo[2,3-d]pyrimidin-4-yl)amino)hexahydrocyclopenta[c]pyrrole-2(1H)-carboxamide], the “solubility in water as a function of pH” value in series [1] and in series [2] was “decreases as pH levels increase” throughout. Besides, the “selectivity for JAK1 over JAK2” value in series [3] (JAK1 over JAK2) was “high selectively for JAK1 over JAK2”. Also, the “inhibition of JAK1” value in series [3] is “potent”.

The record behind these values is patent US12161643B2, “Stable formulations of SHR0302” (ARCUTIS BIOTHERAPEUTICS, INC., priority 2021, dated 2024).
